# Data: ChEMBL document CHEMBL2146461, “Synthesis and antiplasmodial activity of new heteroaryl derivatives of 7-chloro-4-aminoquinoline” (Bioorg Med Chem, 2012)
# Test system: not listed separately
# Assay: Lipophilicity, log P of the compound at pH 7.4
# Assay type: physicochemical
# Settings: buffer
row,Compound,logP
1,Cn1c(CNc2ccnc3cc(Cl)ccc23)nc(-c2ccccc2)c1CN1CCCC1,9.18

# Same assay, conditions: buffer, read-out: logP
row,Compound,logP
1,Clc1ccc2c(NCc3ncc[nH]3)ccnc2c1,2.82
2,Fc1ccc(-c2nc(CNc3ccnc4cc(Cl)ccc34)[nH]c2CN2CCCC2)cc1,6.78
3,Cc1ccc(-c2c[nH]c(CNc3ccnc4cc(Cl)ccc34)n2)cc1,4.95
4,Clc1ccc2c(Nc3ccc(CN4CCCC4)s3)ccnc2c1,3.93
5,Clc1ccc2c(NCc3nc(-c4ccccc4)c(CN4CCCC4)s3)ccnc2c1,6.78
6,CN(C)c1cccc(-c2c[nH]c(CNc3ccnc4cc(Cl)ccc34)n2)c1,5.86
7,Cn1cc(-c2ccccc2)nc1CNc1ccnc2cc(Cl)ccc12,4.99
8,Clc1ccc2c(NCc3ccc(CN4CCCC4)s3)ccnc2c1,4.42
9,Clc1ccc(-c2c[nH]c(CNc3ccnc4cc(Cl)ccc34)n2)cc1,5.34
10,Fc1ccc(-c2c[nH]c(CNc3ccnc4cc(Cl)ccc34)n2)cc1,5.31
11,Clc1ccc2c(NCc3nc4ccccc4[nH]3)ccnc2c1,3.78

# Test system: Plasmodium falciparum
# Assay: Ratio of chloroquine IC50 to compound IC50 for chloroquine-sensitive Plasmodium falciparum D10
# Assay type: functional
# Settings: not given
row,Compound,Ratio IC50
1,Clc1ccc2c(NCc3ncc[nH]3)ccnc2c1,0.11
2,Fc1ccc(-c2nc(CNc3ccnc4cc(Cl)ccc34)[nH]c2CN2CCCC2)cc1,0.57
3,Cc1ccc(-c2c[nH]c(CNc3ccnc4cc(Cl)ccc34)n2)cc1,0.64
4,Clc1ccc2c(Nc3ccc(CN4CCCC4)s3)ccnc2c1,0.01
5,Clc1ccc2c(NCc3nc(-c4ccccc4)c(CN4CCCC4)s3)ccnc2c1,0.81
6,CN(C)c1cccc(-c2c[nH]c(CNc3ccnc4cc(Cl)ccc34)n2)c1,0.46
7,Cn1cc(-c2ccccc2)nc1CNc1ccnc2cc(Cl)ccc12,0.46
8,Cn1c(CNc2ccnc3cc(Cl)ccc23)nc(-c2ccccc2)c1CN1CCCC1,1.18
9,Clc1ccc2c(NCc3ccc(CN4CCCC4)s3)ccnc2c1,1.11
10,Clc1ccc(-c2c[nH]c(CNc3ccnc4cc(Cl)ccc34)n2)cc1,0.43
11,Fc1ccc(-c2c[nH]c(CNc3ccnc4cc(Cl)ccc34)n2)cc1,0.28
12,Clc1ccc2c(NCc3nc4ccccc4[nH]3)ccnc2c1,0.2

# Test system: not listed separately
# Assay: n-octanol-KCl distribution coefficient, log D of the compound at pH 7.4
# Assay type: physicochemical
# Settings: not given
row,Compound,logD
1,Clc1ccc2c(NCc3ncc[nH]3)ccnc2c1,2.39
2,Fc1ccc(-c2nc(CNc3ccnc4cc(Cl)ccc34)[nH]c2CN2CCCC2)cc1,4.77
3,Cc1ccc(-c2c[nH]c(CNc3ccnc4cc(Cl)ccc34)n2)cc1,4.66
4,Clc1ccc2c(Nc3ccc(CN4CCCC4)s3)ccnc2c1,2.98
5,Clc1ccc2c(NCc3nc(-c4ccccc4)c(CN4CCCC4)s3)ccnc2c1,6.01
6,CN(C)c1cccc(-c2c[nH]c(CNc3ccnc4cc(Cl)ccc34)n2)c1,5.48
7,Cn1cc(-c2ccccc2)nc1CNc1ccnc2cc(Cl)ccc12,4.57
8,Cn1c(CNc2ccnc3cc(Cl)ccc23)nc(-c2ccccc2)c1CN1CCCC1,7.57
9,Clc1ccc2c(NCc3ccc(CN4CCCC4)s3)ccnc2c1,2.77
10,Clc1ccc(-c2c[nH]c(CNc3ccnc4cc(Cl)ccc34)n2)cc1,5.1
11,Fc1ccc(-c2c[nH]c(CNc3ccnc4cc(Cl)ccc34)n2)cc1,4.93
12,Clc1ccc2c(NCc3nc4ccccc4[nH]3)ccnc2c1,3.56

# Test system: not listed separately
# Assay: Inhibition of beta-hematin formation assessed as ratio of drug to haemin for 50% inhibition by BHIA assay
# Assay type: functional
# Settings: not given
row,Compound,IC50 [molar ratio]
1,Clc1ccc2c(NCc3ccc(CN4CCCC4)s3)ccnc2c1,1.08

# Test system: Plasmodium falciparum
# Assay: Antiplasmodial activity against chloroquine-sensitive Plasmodium falciparum D10 infected in human red blood cells after 72 hrs by parasite lactate dehydrogenase assay
# Assay type: functional, organism-based
# Settings: D10, 72 h
row,Compound,IC50 [µM]
1,Clc1ccc2c(NCc3ncc[nH]3)ccnc2c1,0.152
2,Fc1ccc(-c2nc(CNc3ccnc4cc(Cl)ccc34)[nH]c2CN2CCCC2)cc1,0.0257
3,Cc1ccc(-c2c[nH]c(CNc3ccnc4cc(Cl)ccc34)n2)cc1,0.0172
4,Clc1ccc2c(Nc3ccc(CN4CCCC4)s3)ccnc2c1,2.66
5,Clc1ccc2c(NCc3nc(-c4ccccc4)c(CN4CCCC4)s3)ccnc2c1,0.0193
6,CN(C)c1cccc(-c2c[nH]c(CNc3ccnc4cc(Cl)ccc34)n2)c1,0.032
7,Cn1cc(-c2ccccc2)nc1CNc1ccnc2cc(Cl)ccc12,0.03
8,Cn1c(CNc2ccnc3cc(Cl)ccc23)nc(-c2ccccc2)c1CN1CCCC1,0.0118
9,Clc1ccc2c(NCc3ccc(CN4CCCC4)s3)ccnc2c1,0.0125
10,Clc1ccc(-c2c[nH]c(CNc3ccnc4cc(Cl)ccc34)n2)cc1,0.0258
11,Fc1ccc(-c2c[nH]c(CNc3ccnc4cc(Cl)ccc34)n2)cc1,0.0521
12,Clc1ccc2c(NCc3nc4ccccc4[nH]3)ccnc2c1,0.0706

# Test system: Plasmodium falciparum
# Assay: Antiplasmodial activity against chloroquine-resistant Plasmodium falciparum W2 infected in human red blood cells after 72 hrs by parasite lactate dehydrogenase assay
# Assay type: functional, organism-based
# Settings: W2, 72 h
row,Compound,IC50 [µM]
1,Clc1ccc2c(NCc3ncc[nH]3)ccnc2c1,0.384
2,Fc1ccc(-c2nc(CNc3ccnc4cc(Cl)ccc34)[nH]c2CN2CCCC2)cc1,0.197
3,Cc1ccc(-c2c[nH]c(CNc3ccnc4cc(Cl)ccc34)n2)cc1,0.0407
4,Clc1ccc2c(Nc3ccc(CN4CCCC4)s3)ccnc2c1,4.22
5,Clc1ccc2c(NCc3nc(-c4ccccc4)c(CN4CCCC4)s3)ccnc2c1,0.0601
6,CN(C)c1cccc(-c2c[nH]c(CNc3ccnc4cc(Cl)ccc34)n2)c1,0.0535
7,Cn1cc(-c2ccccc2)nc1CNc1ccnc2cc(Cl)ccc12,0.0703
8,Cn1c(CNc2ccnc3cc(Cl)ccc23)nc(-c2ccccc2)c1CN1CCCC1,0.0265
9,Clc1ccc2c(NCc3ccc(CN4CCCC4)s3)ccnc2c1,0.0263
10,Clc1ccc(-c2c[nH]c(CNc3ccnc4cc(Cl)ccc34)n2)cc1,0.0605
11,Fc1ccc(-c2c[nH]c(CNc3ccnc4cc(Cl)ccc34)n2)cc1,0.0824
12,Clc1ccc2c(NCc3nc4ccccc4[nH]3)ccnc2c1,0.256

# Test system: Plasmodium falciparum
# Assay: Ratio of chloroquine IC50 to compound IC50 for chloroquine-resistant Plasmodium falciparum W2
# Assay type: functional
# Settings: not given
row,Compound,Ratio IC50
1,Clc1ccc2c(NCc3ncc[nH]3)ccnc2c1,0.39
2,Fc1ccc(-c2nc(CNc3ccnc4cc(Cl)ccc34)[nH]c2CN2CCCC2)cc1,2.11
3,Cc1ccc(-c2c[nH]c(CNc3ccnc4cc(Cl)ccc34)n2)cc1,7.1
4,Clc1ccc2c(Nc3ccc(CN4CCCC4)s3)ccnc2c1,0.04
5,Clc1ccc2c(NCc3nc(-c4ccccc4)c(CN4CCCC4)s3)ccnc2c1,4.93
6,CN(C)c1cccc(-c2c[nH]c(CNc3ccnc4cc(Cl)ccc34)n2)c1,7.78
7,Cn1cc(-c2ccccc2)nc1CNc1ccnc2cc(Cl)ccc12,6.14
8,Cn1c(CNc2ccnc3cc(Cl)ccc23)nc(-c2ccccc2)c1CN1CCCC1,16.27
9,Clc1ccc2c(NCc3ccc(CN4CCCC4)s3)ccnc2c1,16.43
10,Clc1ccc(-c2c[nH]c(CNc3ccnc4cc(Cl)ccc34)n2)cc1,4.77
11,Fc1ccc(-c2c[nH]c(CNc3ccnc4cc(Cl)ccc34)n2)cc1,5.05
12,Clc1ccc2c(NCc3nc4ccccc4[nH]3)ccnc2c1,1.68

# Test system: not listed separately
# Assay: Cytotoxicity against human HMEC1 cells after 72 hrs by MTT assay
# Assay type: cell-based
# Settings: HMEC-1, 72 h
row,Compound,IC50 [µM]
1,Cc1ccc(-c2c[nH]c(CNc3ccnc4cc(Cl)ccc34)n2)cc1,7.77
2,Clc1ccc2c(NCc3nc(-c4ccccc4)c(CN4CCCC4)s3)ccnc2c1,30.4
3,CN(C)c1cccc(-c2c[nH]c(CNc3ccnc4cc(Cl)ccc34)n2)c1,8.97
4,Cn1cc(-c2ccccc2)nc1CNc1ccnc2cc(Cl)ccc12,17.5
5,Cn1c(CNc2ccnc3cc(Cl)ccc23)nc(-c2ccccc2)c1CN1CCCC1,28.6
6,Clc1ccc2c(NCc3ccc(CN4CCCC4)s3)ccnc2c1,24.2
7,Clc1ccc(-c2c[nH]c(CNc3ccnc4cc(Cl)ccc34)n2)cc1,7.45
8,Fc1ccc(-c2c[nH]c(CNc3ccnc4cc(Cl)ccc34)n2)cc1,9.92
9,Clc1ccc2c(NCc3nc4ccccc4[nH]3)ccnc2c1,2.4

# Test system: not listed separately
# Assay: Selectivity index, ratio of IC50 for human HMEC1 cells to IC50 for chloroquine-resistant Plasmodium falciparum W2
# Assay type: toxicity, cell-based
# Settings: read-out: Ratio IC50
row,Compound,selectivity ratio
1,Cc1ccc(-c2c[nH]c(CNc3ccnc4cc(Cl)ccc34)n2)cc1,191
2,Clc1ccc2c(NCc3nc(-c4ccccc4)c(CN4CCCC4)s3)ccnc2c1,506
3,CN(C)c1cccc(-c2c[nH]c(CNc3ccnc4cc(Cl)ccc34)n2)c1,168
4,Cn1cc(-c2ccccc2)nc1CNc1ccnc2cc(Cl)ccc12,249
5,Cn1c(CNc2ccnc3cc(Cl)ccc23)nc(-c2ccccc2)c1CN1CCCC1,1080
6,Clc1ccc2c(NCc3ccc(CN4CCCC4)s3)ccnc2c1,921
7,Clc1ccc(-c2c[nH]c(CNc3ccnc4cc(Cl)ccc34)n2)cc1,123
8,Fc1ccc(-c2c[nH]c(CNc3ccnc4cc(Cl)ccc34)n2)cc1,120
9,Clc1ccc2c(NCc3nc4ccccc4[nH]3)ccnc2c1,9

# Test system: not listed separately
# Assay: Resistance index, ratio of IC50 for chloroquine-resistant Plasmodium falciparum W2 to IC50 for chloroquine-sensitive Plasmodium falciparum D10
# Assay type: functional
# Settings: not given
row,Compound,Ratio IC50
1,Clc1ccc2c(NCc3ncc[nH]3)ccnc2c1,2.5
2,Fc1ccc(-c2nc(CNc3ccnc4cc(Cl)ccc34)[nH]c2CN2CCCC2)cc1,7.7
3,Cc1ccc(-c2c[nH]c(CNc3ccnc4cc(Cl)ccc34)n2)cc1,2.4
4,Clc1ccc2c(Nc3ccc(CN4CCCC4)s3)ccnc2c1,1.6
5,Clc1ccc2c(NCc3nc(-c4ccccc4)c(CN4CCCC4)s3)ccnc2c1,3.1
6,CN(C)c1cccc(-c2c[nH]c(CNc3ccnc4cc(Cl)ccc34)n2)c1,1.7
7,Cn1cc(-c2ccccc2)nc1CNc1ccnc2cc(Cl)ccc12,2.3
8,Cn1c(CNc2ccnc3cc(Cl)ccc23)nc(-c2ccccc2)c1CN1CCCC1,2.2
9,Clc1ccc2c(NCc3ccc(CN4CCCC4)s3)ccnc2c1,2.1
10,Clc1ccc(-c2c[nH]c(CNc3ccnc4cc(Cl)ccc34)n2)cc1,2.3
11,Fc1ccc(-c2c[nH]c(CNc3ccnc4cc(Cl)ccc34)n2)cc1,1.6
12,Clc1ccc2c(NCc3nc4ccccc4[nH]3)ccnc2c1,3.6
